Reference: patent publication US7754738B2, “Pyrazole and pyrrole carboxamide insecticides” (E.I. du Pont de Nemours and Company, priority 2002, dated 2010)

Test system: beet armyworm (Spodoptera exigua)
Experiment: Test D: control of beet armyworm on corn plant, foliar spray
Assay type: in vivo
Settings: sprayed at 50 ppm, 1-day-old larvae, 6 days, visual rating
Procedure: Test compounds were formulated using a solution containing 10% acetone, 90% water and 300 ppm X-77® Spreader Lo-Foam Formula non-ionic surfactant containing alkylarylpolyoxyethylene, free fatty acids, glycols and isopropanol (Loveland Industries, Inc., Greely, Colo. USA), unless otherwise indicated. The formulated compounds were applied in 1 mL of liquid through a SUJ2 atomizer nozzle with ⅛ JJ custom body (Spraying Systems Co. Wheaton, Ill., USA) positioned 1.27 cm (0.5 inches) above the top of each test unit. All experimental compounds in these tests were sprayed at 250 ppm (or lower) and replicated three times. After spraying of the formulated test compound, each test unit was allowed to dry for 1 hour and then a black, screened cap was placed on top. The test units were held for 6 days in a growth chamber at 25° C. and 70% relative humidity. Plant feeding damage was then visually assessed based on foliage consumed.
For evaluating control of beet armyworm (Spodoptera exigua) the test unit consisted of a small open container with a 4-5-day-old corn plant inside. This was pre-infested (using a core sampler) with 10-15 1-day-old larvae on a piece of insect diet.
Test compounds were formulated and sprayed at 250 ppm (or lower) as described for Test A. The applications were replicated three times. […]

O=C(Nc1c(F)cc(F)cc1Br)c1cc(Br)nn1-c1ncccc1Cl [Compound 7, N-(2-bromo-4,6-difluorophenyl)-1-(3-chloro-2-pyridinyl)-3-bromo-1H-pyrazole-5-carboxamide]
feeding damage (plant protection): ≤ 20%
